Measured values published in US5594004A, “Compound with platelet aggregation inhibitor activity” (Meiji Seika Kabushiki Kaisha, priority 1993, dated 1997).
Structures can show the parent of a compound that is named as a salt.

Key:
[1] = target: T1, human platelet GPIIb/IIIa (Homo sapiens, UniProt P05106+P08514); assay: Pharmacological test 2: inhibition of fibrinogen bonding to platelet GPIIb/IIIa (solid phase assay, biotinylated fibrinogen); format: binding; settings: for inhibition at 10 µM: inhibition rate at 10^-5 M; for inhibition at 0.1 µM: inhibition rate at 10^-7 M; for IC50: fibrinogen bonding to GPIIb/IIIa
T1 construct: platelets collected from healthy adults; from tissue; host or cells: platelets from healthy adults (solubilized with octylglucoside, purified on GRGDSPK-Sepharose)
Description: Inhibiting effect of the compound according to the present invention on the binding of platelet GPIIb/IIIa and fibrinogen was examined with a solid phase human platelet GPIIb/IIIa bonding assay using biotinylated fibrinogen as a ligand. Human platelet GPIIb/IIIa was purified according to the method described by Pytela, R. et al. (Science, 231, 1559-1561 (1986)). […] The same amount of TBS containing 50 mM octylglucoside and 2 mM PMSF was added to the pellet obtained in order to solubilize the membrane protein at 4° C. for 20 minutes. […] The solubilized protein solution was adsorbed on a GRGDSPK-Sepharose column which had been equilibrated with TBS (Buffer A) containing 50 mM Octylglucoside, 1 mM CaCl2 and MgCl2. After the column was washed with Buffer A, the adsorbed GPIIb/IIIa was eluted with Buffer A containing 2 mM GRGDSP peptide. GRGDSPK-Sepharose was prepared by coupling GRGDSPK peptide and CNBr-activated Sepharose 4B (Pharmacia) according to the instruction of the manufacturer. Then, solid phase human platelet GPIIb/IIIa bonding assay was carried out according to the method of Mori et al. […] Purified human platelet GPIIb/IIIa was adjusted in an amount of 2 μg/ml and adsorbed in an amount of 50 μl on a 96 well-microtiter plate at 4° C. overnight. After washing with TBS containing 1 mM CaCl2 and 1 mM MgCl2, 100 μl of 1% bovine serum albumin was added, blocking was conducted at 4° C. overnight. […] After washing with TBS-Tween 20, 50 μl of peroxidase labelled avidin which had been diluted with TBS to 4,000 times was added. The reaction was continued for 20 minutes. […] A 50 μl portion of a 0.1M citrate buffer containing 0.05% NaN3 was added to stop the reaction, and absorbance at 415 nm was measured. The rate of Bonding inhibition was calculated from the following formula: [formula]

[2] = system: human PRP (platelet rich plasma); assay: Pharmacological test 1: inhibition of ADP-induced platelet aggregation in human PRP; format: cell-based; settings: Platelet, ADP 5 μM inducer; for inhibition at 1 µM: inhibition rate at 10^-6 M; for IC50: Homo sapiens, platelet aggregation
Description: Pharmacological test 1 Inhibition of platelet aggregation
The effect of the compound according to the present invention on inhibiting the platelet aggregation was examined with human PRP (platelet rich plasma).
Nine volumes of a blood sample was taken out of the vein of a normal human with a syringe in which one volume of a 3.8% sodium citrate solution was charged. The blood sample was centrifuged at 170×g at room temperature for 10 minutes. The supernatant thus obtained was isolated as PRP. The residual blood sample that PRP had been taken out was centrifuged at 2,700×g for 15 minutes. The supernatant was then taken as platelet poor plasma (PPP).
Platelet aggregation test was conducted with an aggligometer (PAM-8C; manufactured by MEBANICKS Co., Ltd.). Compounds to be tested were dissolved in a 50% DMSO saline, a 50% methanol saline or physiological saline. The compound and PRP were preincubated for 2 minutes. The ADP (CHRONO-PAR REAGENTS 384 ADP, CHRONO-LOG Corp.) was used as an inducer in the form of a dilution with saline so that the final concentration is 5 μM.
Anti-platelet aggregation activity was obtained as an inhibition rate to platelet aggregation effect of ADP in the absence of a compound to be tested as follows: [formula] Physiological test 2 Inhibition of fibrinogen bonding to platelet GPIIb/IIIa

T1 sequence (P08514 32-887 limits assumed): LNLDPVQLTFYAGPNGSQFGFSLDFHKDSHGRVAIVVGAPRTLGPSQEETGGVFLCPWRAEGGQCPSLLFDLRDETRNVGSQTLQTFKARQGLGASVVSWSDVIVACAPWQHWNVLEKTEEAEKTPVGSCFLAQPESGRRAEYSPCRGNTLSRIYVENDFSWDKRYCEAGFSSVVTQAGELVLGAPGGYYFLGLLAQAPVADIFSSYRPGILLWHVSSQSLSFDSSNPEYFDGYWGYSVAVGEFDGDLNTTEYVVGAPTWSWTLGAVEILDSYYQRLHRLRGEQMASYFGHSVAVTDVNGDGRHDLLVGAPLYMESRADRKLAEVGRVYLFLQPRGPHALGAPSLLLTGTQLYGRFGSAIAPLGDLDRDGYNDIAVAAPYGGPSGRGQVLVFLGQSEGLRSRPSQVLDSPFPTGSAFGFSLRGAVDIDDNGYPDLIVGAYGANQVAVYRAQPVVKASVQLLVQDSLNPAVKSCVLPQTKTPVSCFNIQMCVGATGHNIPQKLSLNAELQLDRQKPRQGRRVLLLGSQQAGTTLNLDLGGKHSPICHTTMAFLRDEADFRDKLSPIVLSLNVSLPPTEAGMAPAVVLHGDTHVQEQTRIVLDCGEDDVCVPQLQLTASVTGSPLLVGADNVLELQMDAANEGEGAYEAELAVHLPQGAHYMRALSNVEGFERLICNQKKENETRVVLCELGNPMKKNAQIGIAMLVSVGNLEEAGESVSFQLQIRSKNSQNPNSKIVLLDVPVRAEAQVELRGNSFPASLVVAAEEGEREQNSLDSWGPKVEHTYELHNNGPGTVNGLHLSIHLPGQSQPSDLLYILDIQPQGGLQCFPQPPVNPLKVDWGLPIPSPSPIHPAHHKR
T1 sequence (P08514 891-1039 limits assumed): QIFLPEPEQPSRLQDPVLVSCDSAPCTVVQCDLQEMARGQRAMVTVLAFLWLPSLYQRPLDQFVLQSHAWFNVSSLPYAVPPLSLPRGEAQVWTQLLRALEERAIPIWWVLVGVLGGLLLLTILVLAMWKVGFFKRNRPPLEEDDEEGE
T1 sequence (P05106 27-788): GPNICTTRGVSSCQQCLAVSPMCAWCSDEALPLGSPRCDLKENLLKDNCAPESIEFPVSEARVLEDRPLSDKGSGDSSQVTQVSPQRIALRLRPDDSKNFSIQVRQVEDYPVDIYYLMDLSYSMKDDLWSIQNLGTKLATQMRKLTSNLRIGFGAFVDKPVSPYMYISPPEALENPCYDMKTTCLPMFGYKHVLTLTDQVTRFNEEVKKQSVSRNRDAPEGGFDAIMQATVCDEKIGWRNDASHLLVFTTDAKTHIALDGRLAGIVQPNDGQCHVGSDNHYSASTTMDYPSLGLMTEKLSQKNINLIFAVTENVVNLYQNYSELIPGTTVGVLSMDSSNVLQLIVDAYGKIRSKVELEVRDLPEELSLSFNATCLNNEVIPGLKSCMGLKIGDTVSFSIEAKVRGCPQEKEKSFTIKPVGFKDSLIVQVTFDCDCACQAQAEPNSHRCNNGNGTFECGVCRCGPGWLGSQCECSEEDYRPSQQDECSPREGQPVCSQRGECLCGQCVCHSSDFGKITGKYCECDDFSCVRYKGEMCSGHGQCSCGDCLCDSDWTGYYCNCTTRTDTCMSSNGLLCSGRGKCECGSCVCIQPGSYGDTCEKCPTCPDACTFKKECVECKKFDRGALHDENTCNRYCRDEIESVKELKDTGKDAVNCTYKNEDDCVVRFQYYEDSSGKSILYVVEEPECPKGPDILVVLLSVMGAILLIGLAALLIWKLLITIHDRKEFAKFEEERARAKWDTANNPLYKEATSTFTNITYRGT

| SMILES | IC50 [2] | other results |
| --- | --- | --- |
| NC[C@H]1CC[C@H](C(=O)NCC(=O)c2ccc(OCC(=O)O)c(OCC(=O)O)c2)CC1 [Example 1, [[4-[[[trans-4-(aminomethyl)cyclohexyl]carbonylamino]acetyl]-o-phenylene]dioxy]diacetic acid trifluoroacetate] | – | inhibition at 10 µM [1]: 51%; inhibition at 1 µM [2]: 68% |
| NCC1CCC(c2ncc(-c3ccc(OCC(=O)O)c(OCC(=O)O)c3)o2)CC1 (centres unmarked) [Example 4, 2-(4-aminomethylcyclohexyl)-5-(3,4-dicarboxymethoxy)phenyloxazole] | – | inhibition at 10 µM [1]: 73%; inhibition at 1 µM [2]: 85% |
| NC[C@H]1CC[C@H](C(=O)NCCc2ccc(OCC(=O)O)c(OCC(=O)O)c2)CC1 [Example 7, [[4-[[2-[trans-4-(aminomethyl)cyclohexyl]carbonylamino]ethyl]-o-phenylene]dioxy]diacetic acid trifluoroacetate] | – | inhibition at 10 µM [1]: 27%; inhibition at 1 µM [2]: 48% |
| CN(CC(=O)c1ccc(OCC(=O)O)c(OCC(=O)O)c1)C(=O)CCC1CCNCC1 [Example 9, [[4-[[N-[3-(piperidin-4-yl)propionyl]-N-methylamino]acetyl]-o-phenylene]dioxy]diacetic acid trifluoroacetate] | – | inhibition at 0.1 µM [1]: 73%; inhibition at 1 µM [2]: 79% |
| O=C(O)COc1ccc(C(=O)CNC(=O)CCC2CCNCC2)cc1OCC(=O)O [Example 10, [[4-[[N-[3-(piperidin-4-yl)propionyl]amino]acetyl]-o-phenylene]dioxy]diacetic acid trifluoroaceetate] | 350 nM | inhibition at 0.1 µM [1]: 82%; inhibition at 1 µM [2]: 85% |
| O=C(O)COc1ccc(C(=O)CNC(=O)c2cc3c(s2)CCNC3)cc1OCC(=O)O [Example 18, [[4-[[[(4,5,6,7-tetrahydrothieno [3,2-c]pyridin-2-yl]carbonyl]amino]acetyl]-o-phenylene]dioxy]diacetic acid trifluoroacetate] | 140 nM | IC50 [1]: 1700 nM |
| CN(CC(=O)c1ccc(OCC(=O)O)c(OCC(=O)O)c1)C(=O)c1cc2c(s1)CCNC2 [Example 19, [[4-[[[(4,5,6,7-tetrahydrothieno[3,2-c]pyridin-2-yl)carbonyl]-N-methylamino]acetyl]-o-phenylene]dioxy]diacetic acid trifluoroacetate] | 550 nM | IC50 [1]: 3600 nM |
| O=C(O)CCc1ccc(C(=O)CNC(=O)c2cc3c(s2)CCNC3)cc1 [Example 20, 3-[4-[[(4,5,6,7-tetrahydrothieno[3,2-c]pyridin-2-yl)carbonyl]aminoacetyl]phenyl]propionic acid trifluoroacetate] | – | IC50 [1]: 34000 nM |
| O=C(O)COc1ccc(C(O)CNC(=O)c2cc3c(s2)CCNC3)nc1 (centres unmarked) [Example 21, 2-[1-hydroxy-2-[(4,5,6,7-tetrahydrothieno[3,2-c]pyridin-2-yl)carbonylamino]ethyl]pyridin-5-yloxyacetic acid trifluoroacetate] | 500 nM | IC50 [1]: 10000 nM |
| O=C(O)COc1ccc(C(=O)CNC(=O)c2cc3c(s2)CCNC3)cc1 [Example 22, 4-[[(4,5,6,7-tetrahydrothieno[3,2-c]pyridin-2-yl)carbonyl]aminoacetyl]phenoxyacetic acid trifluoroacetate] | 1200 nM | IC50 [1]: > 10000 nM |
| Cc1c(C(=O)NCC(=O)c2ccc(OCC(=O)O)c(OCC(=O)O)c2)sc2c1CNCC2 [Example 27, [[4-[[[(3-methyl-4,5,6,7-tetrahydrothieno[3.2-c]pyridin-2-yl)carbonyl]amino]acetyl]-o-phenylene]dioxy]diacetic acid trifluoroacetate] | 2500 nM | IC50 [1]: 9500 nM |
| O=C(O)COc1ccc(CCNCc2cc3c(s2)CCNC3)cc1OCC(=O)O [Example 40, [[4-[2-[N-[(4,5,6,7-tetrahydrothieno[3,2-c]pyridin-2-yl)methyl]amino]ethyl]-o-phenylene]dioxy]diacetic acid trifluoroacetate] | 4000 nM | – |
| CC(=O)N(CCc1ccc(OCC(=O)O)c(OCC(=O)O)c1)Cc1cc2c(s1)CCNC2 [Example 41, [[4-[2-[N-[(4,5,6,7-tetrahydrothieno[3,2-c]pyridin-2-yl)methyl]-N-acetylamino]ethyl]-o-phenylene]dioxy]diacetic acid trifluoroacetate] | 3300 nM | – |
| Cc1oc(=O)oc1COC(=O)COc1ccc(C(=O)CNC(=O)c2cc3c(s2)CCNC3)cc1OCC(=O)OCc1oc(=O)oc1C [Example 42, Di-(5-methyl-2-oxodioxol-4-yl)methyl [[4-[[(4,5,6,7-tetrahydrothieno[3,2-c]pyridin-2-yl)-carbonyl]amino]acetyl]-o-phenylene]dioxy]diacetic acid trifluoroacetate] | 340 nM | – |
| O=C(O)COc1ccc(-c2cnc(CCC3CCNCC3)o2)cc1OCC(=O)O [Example 43, [[4-[2-[2-(piperidin-4-yl)ethyl]oxazol-5-yl]-o-phenylene]dioxy]diacetic acid 1/2 sulfate] | 2800 nM | – |
| O=C(O)COc1ccc(C(=O)CNC(=O)c2cc3c(s2)CCNC3)nc1 [Example 44, 2-[[4,5,6,7-tetrahydrothieno[3,2-c]pyridin-2-yl)carbonylamino]acetyl]pyridin-5-yloxyacetic acid trifluoroacetate] | 720 nM | – |
| O=C(O)COc1ccc(C(O)CNC(=O)c2cc3c(s2)CCNC3)cc1OCC(=O)O (centres unmarked) [Example 45, [[4-[[2-[(4,5,6,7-tetrahydrothieno[3,2-c]pyridin-2-yl)carbonyl]amino]-1-hydroxyethyl]-o-phenylene]dioxy]diacetic acid trifluoroacetate] | 460 nM | – |
| O=C(O)COc1ccc(-c2nc(C(=O)c3cc4c(s3)CCNC4)cs2)cc1 [Example 47, 4-[[4-(4,5,6,7-tetrahydrothieno[3,2-c]pyridin-2-yl)carbonyl]thiazol-2-yl]phenoxyacetic acid trifluoroacetate] | 6400 nM | – |
| CCCCOC(=O)COc1ccc(C(=O)CNC(=O)c2cc3c(s2)CCNC3)cc1OCC(=O)OCCCC [Example 56, Di-n-butyl [[4-[[[(4,5,6,7-tetrahydrothieno [3,2-c]pyridin-2-yl)carbonyl]amino]acetyl]-o-phenylene]dioxy]diacetate trifluoroacetate] | 1100 nM | – |
| O=C(COc1ccc(C(=O)CNC(=O)c2cc3c(s2)CCNC3)cc1OCC(=O)OC1CCCCC1)OC1CCCCC1 [Example 57, Dicyclohexyl [[4-[[[(4,5,6,7-tetrahydrothieno[3,2-c]pyridin-2-yl)carbonyl]amino]acetyl]-o-phenylene]dioxy]diacetate] | 3200 nM | – |
| CN(CC(=O)c1ccc(OCC(=O)O)c(OCC(=O)O)c1)C(=O)[C@H]1CC[C@H](C(=N)N)CC1 [Example 58, [[4-[[[trans-4-amidinocyclohexyl]carbonyl-N-methylamino]acetyl]-o-phenylene]dioxy]diacetic acid trifluoroacetate] | 140 nM | – |
